The values below come from patent publication US20170363618A1, “AGE-MODIFIED CELLS AND METHODS FOR MAKING AGE-MODIFIED CELLS” (MEMORIAL SLOAN-KETTERING CANCER CENTER, priority 2015, published 2017).

“Also recorded” adds a separate entry of the source. Where two headings read alike, the source gives them in different places.

Data set [1] concerns young (348) and old (204) fibroblasts. Briefly: 10-day culture with compounds, cell survival measured by cell number counts. The class given is cell-based. As to the method:
Cell numbers are calculated as a mean of 8 wells.
Control cultures of young cells were still healthy after 10 days, and the compounds all had effects on viability (FIG. 15).

For data set [2] the test system is unchanged. Briefly: Immunofluorescence detection of aging marker expression in fibroblasts after three-day compound treatment. Conditions: for shape of youthful marker expression over the three doses (C1-C3): in some cases, highest dose gave lower expression than middle or lower dose. The class given is cell-based, human. As to the method: Cell samples were all supplied by Coriell Cell Repositories. The cell line from a young individual (<20 years) was GM03348 (“348”). The cell line from an old individual (>65 years) was GM04204 (“204”).
Cells were cultured in human fibroblast medium made from 95% Gibco's Minimum Essential Medium, 4.5% fetal bovine serum, and 0.5% Penicillin/Streptomycin. Cells were plated on 15 cm plates and passaged every 2-3 days as necessary, and fed every other day. For experimentation, cells were plated in 96 well plates or 6 well plates. Before fixation, cells were treated with a preextraction buffer containing 20 mM Hepes pH 7.9, 0.5% Triton X-100, 50 mM NaCl, and 300 mM sucrose for 7 minutes at 4° C. to reduce the high levels of background seen in initial stainings. Cells were then fixed with 4% paraformaldehyde for 15 minutes at room temperature.
After fixing, cells were incubated in Permeablization Buffer containing 0.3% Triton X-100 and 1% BSA in PBS for 35 minutes at room temperature. Cells were then incubated with primary antibodies to markers (1:1000 in PBS) at 4° C. overnight. Following incubation, cells were washed 3× with PBS, then incubated with secondary antibodies (1:500 in PBS) for 30 minutes at room temperature, protected from light. Following this incubation, cells were washed 1× with PBS, then incubated with DAPI 1:1000 in PBS for 7 minutes at room temperature, protected from light, then washed 2× with PBS. Stainings were imaged using either using the Hamamatsu Olympus IX81 microscope, or the PerkinElmer Operetta High Content Imaging System. The expression level of each marker was determined relative to the untreated control on the same treatment plate (FIGS. 11, 13, 15 and 16), or to the average of the untreated controls across all treatment plates for the same marker (FIGS. 12 and 14).
Imaging of immunofluorescence was done using the PerkinElmer Operetta High Content Imaging System. Each well had several (>15) random spots in each plate imaged, and staining intensity quantification was done using the Operetta Harmony software. Analysis is based on mean intensity levels of each staining within a single well compared to mean intensity levels in other wells.
(§1) Cells were then treated with each of the six compounds for three days. Each compound had both a young and old untreated control, as well as the three pre-determined concentrations for both young and old cells. In addition, a six-well plate was set up for Decitabine, Zebularine, Chaetocin and SW155246, with an additional 3 cm plate for use as untreated controls for quantification of global levels of DNA methylation. After treatment, cells were stained with immunofluorescence for HP1α, H1, γH2Ax, Lamin B1, H3K9me3 and […].

For data set [3], the system named is global DNA levels of 5-mC methylation. Put plainly: Global 5-mC DNA methylation quantification (colorimetric Methylflash kit) in treated fibroblasts. The class given is cell-based, human. Conditions: 3 days of treatment, young and old fibroblasts, three concentrations. As to the method: Genomic DNA was extracted from treated cell samples using the Quick-gDNA MicroPrep kit (Zymo). Global levels of DNA methylation were measured using the colorimetric Methylflash Methylated DNA quantification kit (Epigentek) according to manufacturer instructions, and read using the PerkinElmer ENSPIRE plate reader. gDNA sample size was 50 ng. Analysis was performed according to manufacturer instructions.
as §1

For the next data set, the system named is motor neurons (MNs). Conditions: ALS motor neuron screen, 72 hr with compound; cited from earlier work.
Setting [4] is: 3-day treatment, primary fibroblasts from young and old individuals, immunofluorescence vs untreated control.
The mark [5] stands for this setting: 3-day treatment, young and old fibroblasts.

As to `CN1C(=O)[C@@]23C[C@]4([C@]56C[C@@]78SS[C@@](CO)(C(=O)N7[C@H]5Nc5ccccc56)N(C)C8=O)c5ccccc5N[C@@H]4N2C(=O)[C@]1(CO)SS3` [Chaetocin, (3S,3'S,5aR,5aR,10bR,10′bR,11aS,11′aS)-2,2′,3,3′,5a,5′a,6,6′-octahydro-3,3′-bis(hydroxymethyl)-2,2′-dimethyl-[10b,10′b(11H,11′H)-bi3,11a-epidithio-11aH-pyrazino[1′,2′:1,5]pyrrolo[2,3-b]indole]-1,1′,4,4′-tetrone], the “toxicity / effect on viability after prolonged culture (cell number)” value (“toxicity / effect on viability” below) in data set [1] (10-day culture, young cells (control cultures still healthy)) is listed as “highest toxicity”.

For the molecule `Nc1ncn([C@H]2C[C@H](O)[C@@H](CO)O2)c(=O)n1` [Decitabine, 5-aza-2-deoxycytidine], the “toxicity / effect on viability” value in data set [1] is reported as “Much less toxicity”.

On to `CO[C@H]1C[C@@H]2CC[C@@H](C)[C@@](O)(O2)C(=O)C(=O)N2CCCC[C@H]2C(=O)O[C@H]([C@H](C)C[C@@H]2CC[C@@H](O)[C@H](OC)C2)CC(=O)[C@H](C)/C=C(\C)[C@@H](O)[C@@H](OC)C(=O)[C@H](C)C[C@H](C)/C=C/C=C/C=C/1C` [Rapamycin], for which the “toxicity / effect on viability” value in data set [1] is given as “Toxicity was also seen”.

As for `Oc1ccc(C=Cc2cc(O)cc(O)c2)cc1` [Resveratrol], the “effect on markers in young cells compared to old cells” value in data set [2] (3-day culture) was “greater in young cells compared to old cells; also recorded: more of an effect on young cells than on old cells”. In addition, the “levels of all markers (H1, HP1α, H3K9me3, H3K27me3, LaminB1, yH2Ax)” value in data set [2] (3-day culture, young (348) and old (204) fibroblasts, normalized to untreated, FIG. 11) is on record as “increased”. The “levels of the five markers of a younger state (H1, HP1α, H3K9me3, H3K27me3, LaminB1)” value in data set [2] (3-day culture, young and old fibroblasts) is on record as “all increased”. For the same molecule, in data set [2] (setting [4]), the “levels of HP1α (heterochromatin marker, marker of young cellular age)” value was “increasing” and the “levels of histone protein H1 (marker of young cellular age)” value is given as “increasing”. Further, the “toxicity / effect on viability” value in data set [1] is listed as “Toxicity was also seen”.

In the case of `O=[N+]([O-])c1cc(S(=O)(=O)Nc2ccc(O)c3ccccc23)ccc1Cl` [SW155246, 4-Chloro-N-(4-hydroxy-1-naphthalenyl)-3-nitro-benzenesulfonamide], the “shape of youthful marker expression over the three doses (C1-C3)” value in data set [2] (3-day treatment) is “inverted U shaped curve”. Besides, in data set [2] (setting [4]), the “levels of HP1α (heterochromatin marker, marker of young cellular age)” value is “decreasing”; the “levels of histone protein H1 (marker of young cellular age)” value is recorded as “decreasing”; the “levels of γH2AX (DNA damage marker, marker of old cellular age)” value is recorded as “increasing”. In data set [2] (setting [5]), the “expression of the six markers tested” value is on record as “modulated”. In addition, the “global levels of 5-mC DNA methylation” value in data set [3] is “increased with both the highest and lowest concentrations, but decreased slightly with the middle concentration; also recorded: did not consistently go down”. In data set [1], the “toxicity / effect on viability” value is given as “Much less toxicity”.

Regarding `O=c1ncccn1[C@@H]1O[C@H](CO)[C@@H](O)[C@H]1O` [Zebularine, 1-(β-D-Ribofuranosyl)-2(1H)-pyrimidinone], the “shape of youthful marker expression over the three doses (C1-C3)” value in data set [2] (3-day treatment) is reported as “inverted U shaped curve”. Moreover, the “expression of the six markers tested” value in data set [2] (setting [5]) was “modulated”. In addition, the “global levels of 5-mC DNA methylation” value in data set [3] was “decrease”. Moreover, the “toxicity / effect on viability” value in data set [1] was “Much less toxicity”.

Consider `O=C1Cc2c([nH]c3ccc(Br)cc23)-c2ccccc2N1` [kenpaullone], for which the “survival of motor neurons after trophic factor withdrawal” value in the data set with motor neurons (MNs) is given as “impressive ability to prolong the healthy survival of MNs”.
